Reference: patent publication US9784732B2, “Acidic environment-detecting fluorescent probe” (THE UNIVERSITY OF TOKYO, priority 2011, dated 2017)
Read-outs that look alike come from different tables or passages of the source. Each block holds one compound with its values, some of them ahead of it.

Legend:
HER2 = assay: High-throughput evaluation of HER2 downregulation; type: cell-based; conditions: 17-AAG 10 μM with Compound 3 30 nm; SKOV3 cells expressing HER2-HaloTag; five hours; versus DMSO
Protocol: The pH-sensitive fluorescent probe Compound 3 and 17-AAG (Wako Pure Chemicals) were diluted with water. An equal amount of DMSO (Sigma-Aldrich) was added as a control for the 17-AAG. SKOV3 cells expressing the HER2-HaloTag were suspended in RPMI (Nacalai Tesque) containing 2% FBS (CCB), implanted in a 384-well imaging plate (PerkinElmer), and cultured overnight at 37° C. in a 5% CO2 atmosphere.
Compound 3 and 17-AAG were added to […] of a 384-well imaging plate implanted with SKOV3 cells expressing the HER2-HaloTag to respective final concentrations of 30 nm and 10 μM. DMSO alone was added to 32 wells instead of 17-AAG as a control. Fluorescence values at 580 nm induced by 535 excitation were measured using a plate reader, after which culturing was performed at 37° C. in a 5% CO2 atmosphere for five hours, and fluorescence values were again measured using the plate reader. […] In this way, it is possible to simply evaluate downregulation of the cancer-related receptor HER2 via fluorescence values.

[1] = Optical properties and fluorescence quantum yield; type: physicochemical; conditions: for Maximum Absorption Wavelength (nm) / Maximum Emission Wavelength (nm): 200 mM sodium phosphate buffer, 0.03% (v/v) DMSO
Protocol: (§1) In order to measure absorption and fluorescence spectra, a dye compound was dissolved in dimethyl sulfoxide (DMSO, fluorescent analysis-grade, Dojindo) to obtain 1 mM of standard solution. Using a UV-1650 PCUV/V spectrometer (Shimadzu) and an FP-6600 fluorescence spectrometer (JASCO), the optical properties of the dye compound in 200 mM of a sodium phosphate buffer solution containing 0.03% (v/v) DMSO as a cosolvent were measured. In order to determine fluorescence quantum yield (Φf1), the value (Φf1=0.65) of Rhodamine B in ethanol was used as a standard. The value was calculated according to the following formula. Φx/Φst=[Ast/Ax][nx^2/nst^2][Dx/Dst]
The absorption spectrum and fluorescence emission spectrum when solution pH was altered from 2.0 to 10.0 for Compound A obtained in Example 1 were obtained according to the measurement method described above. Absorption spectra are shown in FIG. 1-1, fluorescence emission spectra in FIG. 1-2, and a pH profile showing pH-induced changes in fluorescent intensity in FIG. 1-3. The maximum absorption wavelength, maximum emission wavelength, fluorescent quantum yield, and pKa when pH is changed from 10.0 to 4.0 are shown in table 1.

[2] = pH profile of fluorescent intensity (pKa) in phosphate buffer; type: physicochemical; conditions: sodium phosphate buffer, from pH profile of fluorescent intensity
Protocol: as §1
The absorption spectrum and fluorescence emission spectrum when solution pH was altered from 2.0 to 10.0 for Compound A obtained in Example 1 were obtained according to the measurement method described above.
Using a 100 mM phosphate buffer solution of Compound 1 (500 nM) obtained in Example 2, pH was altered from 4.39 to 9.24, and the fluorescence spectrum was measured.
A fitted curve for the pH profile was obtained according to the following formula.
Next, in order to investigate the reversibility of pH changes in Dye Conjugate 1, the fluorescent intensity ratio (fluorescent intensity at 540 nm/fluorescent intensity at 488 nm) was calculated for a case in which pH was cycled between 7.1 and 3.2 every 30 seconds.

[3] = in ethanol; cited from earlier work

Structure (SMILES): C=CCNC1=C2C[C@@H](C)C[C@H](OC)[C@H](O)[C@@H](C)/C=C(\C)[C@H](OC(N)=O)[C@@H](OC)/C=C\C=C(/C)C(=O)NC(=CC1=O)C2=O [Compound 17-AAG]
- Difference in fluorescence values before and after culturing (F5−F0) (HER2): large increase in fluorescence values

- Shift of maximum absorption wavelength to shorter wavelength ([1]; deprotonated type (pH 10.0) to protonated type (pH 4.0)): 20 nm
- Maximum Absorption Wavelength (nm) ([1]; pH 4.0): 527 nm
- Maximum Emission Wavelength (nm) ([1]; pH 4.0): 554 nm
- Fluorescence Quantum Yield ([1]; pH 10.0 (deprotonated type), standard Rhodamine B in ethanol): 0.024
- Maximum Absorption Wavelength (nm) ([1]; pH 10.0): 547 nm
- Maximum Emission Wavelength (nm) ([1]; pH 10.0): 575 nm
- pKa ([2]; read-out: pKa (higher, pKa2)): 6.8
- pKa ([2]; read-out: pKa (lower, pKa1)): 5.4
Structure (SMILES): CN1CCN(c2ccc3c(-c4ccccc4C(=O)O)c4ccc(=[N+]5CCN(C)CC5)cc-4oc3c2)CC1.[Cl-] [Compound A, 1-(9-(2-carboxyphenyl)-6-(4-methylpiperazine-1-yl)-3H-xanthene-3-ylidene)-4-methylpiperazine-1-ium chloride]

- pKa ([2]; read-out: pKa (higher, pKa2)): 6.6
- pKa ([2]; read-out: pKa (lower, pKa1)): 5.3
Structure (SMILES): CN1CCN(c2ccc3c(-c4ccccc4C(=O)N(C)CC(=O)NCCOCCOCCOCCC(=O)[O-])c4ccc(=[N+]5CCN(C)CC5)cc-4oc3c2)CC1 [Compound D, 2-methyl-1-(2-(3-(4-methylpiperazine-1-ium-1-ylidene)-6-(4-methylpiperazine-1-yl)-3H-xanthene-9-yl)phenyl)-1,4-dioxo-8,11,14-trioxa-2,5-diazaheptadecane-17-oate]

Structure (SMILES): CCN(CC)c1ccc2c(-c3ccccc3C(=O)O)c3ccc(=[N+](CC)CC)cc-3oc2c1.[Cl-] [Rhodamine B]
- Fluorescence Quantum Yield of the standard [3]: 0.65
